What all share (format): functional
For test [1], the system named is Rattus norvegicus. The test can be described thus: Analgesic activity in sc dosed rat assessed as inhibition of phenazocine-induced effect.
The test system of test [2] is Mus musculus. The test can be described thus: Analgesic activity in sc dosed mouse by acetylcholine writhing test. (In general: Writhing tests count abdominal constrictions after an irritant is injected.)
Test [3] relates to Rattus norvegicus. Put plainly: Analgesic activity in sc dosed rat by tail flick test. For orientation: In hot-plate and tail-flick tests a longer latency is read as antinociception.
Test [4] deals with Rattus norvegicus. The test can be described thus: Analgesic activity in sc dosed rat by intracarotid bradykinin test.
For test [5], the system named is Rattus norvegicus. The test can be described thus: Analgesic activity in sc dosed rat assessed as inhibition of morphine-induced effect.
The subject of test [6] is Rattus norvegicus. The test can be described thus: Analgesic activity in sc dosed rat assessed as inhibition of meperidine-induced effect.
For test [7], the system named is Rattus norvegicus. Put plainly: Analgesic activity in rat at 240 mg/kg, sc by tail flick test. The following applies: route subcutaneous.
In test [8] the test system is Rattus norvegicus. The test can be described thus: Analgesic activity in rat at 120 mg/kg, sc by tail flick test. As to conditions: route subcutaneous.
Test [9] relates to Mus musculus. Put plainly: Analgesic activity in mouse at 25 mg/kg, sc by acetylcholine writhing test. The following applies: route subcutaneous.
Where [10] appears, read: Mus musculus, sc, read-out: ED50.
The mark [11] stands for this setting: Rattus norvegicus, Tail, sc, read-out: ED50.
The mark [12] stands for this setting: Rattus norvegicus, sc, read-out: ED50.

The term ED50 denotes the dose that gives a 50% effect, or the effect in half of the subjects.

In the case of `CC(=O)CC[C@]1(C)C2Cc3ccc(O)cc3[C@@]1(C)CCN2C` (mixture of isomers), the AD50 with Rattus norvegicus [1] turned out to be 40 mg/kg. Also, the ED50 in the test on Mus musculus [2] (setting [10]) is 0.25 mg/kg.
Take `CCC(=O)CC[C@]1(C)C2Cc3ccc(O)cc3[C@@]1(C)CCN2C.Cl` (mixture of isomers): the median effective dose (ED50) in the test on Rattus norvegicus [3] (setting [11]) stood at 0.99 mg/kg; in the test with Mus musculus [2] (setting [10]), 0.18 mg/kg. Further, in the test on Rattus norvegicus [1], the AD50 was found to be 1 mg/kg.
As to `CCCC(=O)CC[C@]1(C)C2Cc3ccc(O)cc3[C@@]1(C)CCN2C.Cl` (mixture of isomers), the ED50 in the test with Rattus norvegicus [3] (setting [11]) was found to be 0.099 mg/kg; in the test on Mus musculus [2] (setting [10]) it was 0.023 mg/kg; with Rattus norvegicus [4] (setting [12]), 0.019 mg/kg. The AD50 in the test on Rattus norvegicus [1] turned out to be 80 mg/kg.
For `CCCCC(=O)CC[C@]1(C)C2Cc3ccc(O)cc3[C@@]1(C)CCN2C.Cl` (mixture of isomers) the same measures were 0.039 mg/kg, 0.017 mg/kg, 0.012 mg/kg and 0.1 mg/kg.
Consider `CCCCCC(=O)CC[C@]1(C)C2Cc3ccc(O)cc3[C@@]1(C)CCN2C.Cl` (mixture of isomers), for which the median effective dose (ED50) came to 120 mg/kg in the test on Rattus norvegicus [3] (setting [11]), 0.24 mg/kg in the test with Mus musculus [2] (setting [10]) and 0.043 mg/kg in the test on Rattus norvegicus [4] (setting [12]). In addition, the values for the AD50 with Rattus norvegicus [1], in the test on Rattus norvegicus [5] and with Rattus norvegicus [6] were 0.008 mg/kg, 0.098 mg/kg and 0.19 mg/kg, respectively.
As for `CCCCCCC(=O)CC[C@]1(C)C2Cc3ccc(O)cc3[C@@]1(C)CCN2C.Cl` (mixture of isomers), the values for the ED50 in the test with Rattus norvegicus [3] (setting [11]), in the test with Mus musculus [2] (setting [10]) and in the test on Rattus norvegicus [4] (setting [12]) were 120 mg/kg, 12 mg/kg and 2.2 mg/kg, respectively. Further, the AD50 with Rattus norvegicus [1] was 0.04 mg/kg.
Take `CC(C)C(=O)CC[C@]1(C)C2Cc3ccc(O)cc3[C@@]1(C)CCN2C.Cl` (mixture of isomers): the results for the ED50 with Rattus norvegicus [3] (setting [11]), in the test on Mus musculus [2] (setting [10]) and in the test on Rattus norvegicus [4] (setting [12]) were 24 mg/kg, 0.11 mg/kg and 0.12 mg/kg, respectively. In the test on Rattus norvegicus [1], the AD50 was 80 mg/kg.
For `CC(C)CC(=O)CC[C@]1(C)C2Cc3ccc(O)cc3[C@@]1(C)CCN2C.Cl` (mixture of isomers) the same measures were 0.067 mg/kg, 0.019 mg/kg, 0.019 mg/kg and 0.01 mg/kg.
Turning to `CC(C)CCC(=O)CC[C@]1(C)C2Cc3ccc(O)cc3[C@@]1(C)CCN2C.Cl` (mixture of isomers), the AD50 with Rattus norvegicus [1] is 0.3 mg/kg; in the test with Rattus norvegicus [5] it was 0.58 mg/kg; in the test on Rattus norvegicus [6] it was 0.73 mg/kg. The ED50 in the test with Mus musculus [2] stood at 0.074 mg/kg; in the test on Rattus norvegicus [4] (setting [12]), 0.032 mg/kg. Further, the Activity in the test with Rattus norvegicus [7] was determined as 47%.
On to `CC(C)CCCC(=O)CC[C@]1(C)C2Cc3ccc(O)cc3[C@@]1(C)CCN2C` (mixture of isomers), for which the results for the median effective dose (ED50) in the test on Rattus norvegicus [3] (setting [11]) and with Mus musculus [2] (setting [10]) were 120 mg/kg and 5.3 mg/kg, respectively. In the test with Rattus norvegicus [1], the AD50 turned out to be 0.029 mg/kg.
For `COc1ccc2c(c1)[C@@]1(C)CCN(C)C(C2)[C@@]1(C)CCC(C)=O.Cl` (mixture of isomers), in the test with Mus musculus [2] (setting [10]), the ED50 is 3.5 mg/kg. For the same compound, the Activity in the test with Rattus norvegicus [8] is reported as 66%.
With `CCC(=O)CC[C@]1(C)C2Cc3ccc(OC)cc3[C@@]1(C)CCN2C.CS(=O)(=O)O` (mixture of isomers), the 50% effective dose (ED50) in the test with Rattus norvegicus [3] (setting [11]) came to 5.9 mg/kg; with Mus musculus [2] (setting [10]), 1.9 mg/kg. Moreover, the AD50 in the test with Rattus norvegicus [1] turned out to be 1 mg/kg.
`CCCC(=O)CC[C@]1(C)C2Cc3ccc(OC)cc3[C@@]1(C)CCN2C.CS(=O)(=O)O` (mixture of isomers): the ED50 in the test with Rattus norvegicus [3] (setting [11]) is 2 mg/kg; in the test with Mus musculus [2] (setting [10]), 0.89 mg/kg. Further, in the test on Rattus norvegicus [1], the AD50 was determined as 80 mg/kg.
For `CCCCC(=O)CC[C@]1(C)C2Cc3ccc(OC)cc3[C@@]1(C)CCN2C.Cl` (mixture of isomers) the same measures were 1.35 mg/kg, 0.63 mg/kg and 1 mg/kg.
Consider `CCCCCC(=O)CC[C@]1(C)C2Cc3ccc(OC)cc3[C@@]1(C)CCN2C.Cl` (mixture of isomers), for which the ED50 was 30 mg/kg with Rattus norvegicus [3] (setting [11]) and 1.5 mg/kg in the test with Mus musculus [2] (setting [10]). In the test on Rattus norvegicus [1], the AD50 worked out at 10 mg/kg.
`CCCCCCC(=O)CC[C@]1(C)C2Cc3ccc(OC)cc3[C@@]1(C)CCN2C.Cc1ccc(S(=O)(=O)O)cc1` (mixture of isomers): in the test with Rattus norvegicus [3] (setting [11]), the ED50 is 120 mg/kg. The AD50 in the test with Rattus norvegicus [1] was found to be 80 mg/kg. Moreover, in the test with Mus musculus [9], the Activity is recorded as 20%.
Take `COc1ccc2c(c1)[C@@]1(C)CCN(C)C(C2)[C@@]1(C)CCC(=O)C(C)C.CS(=O)(=O)O` (mixture of isomers): the AD50 in the test on Rattus norvegicus [1] is 80 mg/kg. For the same compound, the ED50 in the test with Mus musculus [2] (setting [10]) came to 5 mg/kg. Further, the Activity in the test on Rattus norvegicus [8] was 42%.
Regarding `COc1ccc2c(c1)[C@@]1(C)CCN(C)C(C2)[C@@]1(C)CCC(=O)CC(C)C.CS(=O)(=O)O` (mixture of isomers), the ED50 in the test with Rattus norvegicus [3] (setting [11]) is 4.3 mg/kg; in the test on Mus musculus [2] (setting [10]), 1 mg/kg. The AD50 in the test on Rattus norvegicus [1] was 80 mg/kg.
With `COc1ccc2c(c1)[C@@]1(C)CCN(C)C(C2)[C@@]1(C)CCC(=O)CCC(C)C.Cl` (mixture of isomers), the ED50 came to 16 mg/kg in the test on Rattus norvegicus [3] (setting [11]), 2 mg/kg with Mus musculus [2] (setting [10]) and 2.4 mg/kg with Rattus norvegicus [4] (setting [12]). Further, the AD50 in the test with Rattus norvegicus [1] was 80 mg/kg.
On to `COc1ccc2c(c1)[C@@]1(C)CCN(C)C(C2)[C@@]1(C)CCC(=O)CCCC(C)C.Cl` (mixture of isomers), for which, in the test with Rattus norvegicus [1], the AD50 turned out to be 80 mg/kg. The 50% effective dose (ED50) with Mus musculus [2] (setting [10]) was found to be 7.5 mg/kg. The compound also came in with an Activity in the test with Rattus norvegicus [8] of 70%.
Consider `CC(=O)CC[C@]1(C)C2Cc3ccc(O)cc3[C@@]1(C)CCN2C.CS(=O)(=O)O` (mixture of isomers), for which the ED50 in the test with Rattus norvegicus [3] (setting [11]) was 2.5 mg/kg; in the test with Rattus norvegicus [4] (setting [12]), 0.19 mg/kg.
`CCCCCC(=O)CC[C@]1(C)C2Cc3ccc(O)cc3[C@@]1(C)CCN2C.CS(=O)(=O)O` (single isomer, unassigned; (-)): the ED50 in the test on Rattus norvegicus [3] amounted to 95 mg/kg; with Mus musculus [2] it was 0.19 mg/kg; with Rattus norvegicus [4], 0.022 mg/kg. Besides, the AD50 with Rattus norvegicus [1] was 0.005 mg/kg.
In the case of `CCCCCC(=O)CC[C@]1(C)C2Cc3ccc(O)cc3[C@@]1(C)CCN2C.CS(=O)(=O)O` (stereo in doubt; (+)-3e), the results for the 50% effective dose (ED50) with Rattus norvegicus [3] (setting [11]), in the test on Mus musculus [2] and with Rattus norvegicus [4] were 95 mg/kg, 11 mg/kg and 50 mg/kg, respectively. The AD50 in the test on Rattus norvegicus [1] is 80 mg/kg.
For the compound `CC(C)CCC(=O)CC[C@]1(C)C2Cc3ccc(O)cc3[C@@]1(C)CCN2C.Cl` (stereo in doubt; (+)-3i), the values for the ED50 in the test with Rattus norvegicus [3] (setting [11]) and in the test with Mus musculus [2] were 120 mg/kg and 10 mg/kg, respectively. Besides, the AD50 in the test with Rattus norvegicus [1] turned out to be 20 mg/kg.
With `CC(C)CCC(=O)CC[C@]1(C)C2Cc3ccc(O)cc3[C@@]1(C)CCN2C.Cl` (stereo in doubt; (-)-3i), the AD50 with Rattus norvegicus [1] was determined as 0.088 mg/kg. Moreover, in the test on Mus musculus [2], the ED50 turned out to be 0.016 mg/kg. In the test with Rattus norvegicus [8], the Activity is listed as 46%.
With `CO[C@@]12CC[C@@]3(C[C@@H]1[C@](C)(O)C(C)(C)C)[C@H]1Cc4ccc(O)c5c4[C@@]3(CCN1CC1CC1)[C@H]2O5` [BUPRENORPHINE], the AD50 with Rattus norvegicus [1] is 0.11 mg/kg. Further, the results for the ED50 in the test on Mus musculus [2] (setting [10]) and with Rattus norvegicus [4] (setting [12]) were 0.059 mg/kg and 0.004 mg/kg, respectively. Moreover, the Activity in the test with Rattus norvegicus [8] worked out at 14%.
On to `C[C@H]1[C@H]2Cc3ccc(O)cc3[C@]1(C)CCN2CC1CC1` [CYCLAZOCINE], for which the AD50 in the test with Rattus norvegicus [1] was 0.028 mg/kg; with Rattus norvegicus [5], 0.029 mg/kg; in the test with Rattus norvegicus [6] it was 0.024 mg/kg.
As to `CN1CC[C@]23c4c5ccc(O)c4O[C@H]2[C@@H](O)C=C[C@H]3[C@H]1C5` [MORPHINE], the ED50 in the test on Rattus norvegicus [3] (setting [11]) is 3.9 mg/kg; in the test on Rattus norvegicus [4] (setting [12]) it was 2.3 mg/kg.
With `C=CCN1CC[C@]23c4c5ccc(O)c4O[C@H]2C(=O)CC[C@@]3(O)[C@H]1C5` [NALOXONE], the AD50 in the test with Rattus norvegicus [1] came out at 0.008 mg/kg; in the test with Rattus norvegicus [5], 0.004 mg/kg; in the test with Rattus norvegicus [6], 0.004 mg/kg. Further, the ED50 in the test on Mus musculus [2] (setting [10]) came out at 60 mg/kg.

The values above are taken from ChEMBL document CHEMBL3244409, “(2,6-Methano-3-benzazocin-11 beta-yl)alkanones. 1. Alkylalkanones: a new series of N-methyl derivatives with novel opiate activity profiles” (1979).
